Laboratory results taken from paper PMC6475383 (Proceedings of the National Academy of Sciences of the …, 2019).

Assays:
PNH erythrocytes [1] = test: C3-opsonization of PNH erythrocytes; assay type: cell-based, human; details: acidified serum, 1 µM, flow cytometry
[2] = tested on: C3 convertase activity in serum of C3G patients; test: Inhibition of C3 cleavage in C3G patient serum; assay type: biochemical; details: patient serum mixed with normal human serum, Mg2+-EGTA
sheep erythrocytes = test: C3G patient serum-induced hemolysis of sheep erythrocytes; assay type: cell-based; details: 0.15 µM, 20% patient serum, EGTA
AP activation in plasma = test: LPS-induced AP activation in mice; assay type: in vivo, C57BL/6J mice; details: 30 mg/kg oral, 3.5 h after i.p. LPS
[3] = tested on: lectin complement pathway; test: Wieslab lectin pathway assay in human serum; assay type: biochemical; details: up to 100 µM
[4] = tested on: passive Heymann nephritis; test: Passive Heymann nephritis; assay type: in vivo, Sprague-Dawley rats; details: rats
PNH erythrocytes [5] = test: Ex vivo hemolysis of PNH erythrocytes
[6] = tested on: classical complement pathway; test: Wieslab classical pathway assay in human serum; assay type: biochemical; details: up to 100 µM
[7] = tested on: receptors, ion channels, kinases, and proteases; test: Broad assay panel; details: up to 10 µM
[8] = tested on: KRN/I-Ag7 serum transfer-induced arthritis; test: KRN arthritis model; assay type: in vivo, C57BL/6 mice
[9] = prophylactic and therapeutic dosing, end of study

CCO[C@H]1CCN(Cc2c(OC)cc(C)c3[nH]ccc23)[C@H](c2ccc(C(=O)O)cc2)C1 [LNP023]
C3 deposition on the surface of CD59-negative erythrocytes (PNH erythrocytes [1]): able to block C3 deposition | C3 cleavage in C3G patient sera [2]: blocked abnormal C3 cleavage | C3G serum-induced hemolysis of sheep erythrocytes (sheep erythrocytes): potently blocked hemolysis | complement activation in plasma (C3d/iC3b) after LPS (AP activation in plasma): effectively blocked complement activation | inhibition of lectin complement pathway activation [3]: no inhibition | glomerular C3 deposition ([4]; after compound treatment): near-complete inhibition of complement activation | glomerulopathy [4, 9]: greatly attenuate | overall histopathology score [4, 9]: significantly improve | tubular degeneration [4, 9]: prevent tubular degeneration | disease progression after onset of proteinuria ([4]; therapeutic dosing from day 6): immediately halted further disease progression | IC50 (PNH erythrocytes [5]; Homo sapiens, Erythrocyte, 24 h, read-out: IC50 lysis of PNH erythrocytes): 400 nM | extent of inhibition of hemolysis of PNH erythrocytes (PNH erythrocytes [5]; dose-response, acidified NHS, FACS): full inhibition | inhibition of classical complement pathway activation [6]: no inhibition | effects in a broad assay panel of receptors, ion channels, kinases, and proteases [7]: no significant effects | disease protection ([8]; mice, 60 mg/kg b.i.d. oral): Full disease protection | disease protection ([8]; mice, 180 mg/kg b.i.d. oral): Full disease protection | overall clinical score ([8]; mice, 20, 60, and 180 mg/kg b.i.d. oral): highly efficacious | complement activation in the joints (Ba, C3d, C5a) ([8]; mice, all doses (20, 60, 180 mg/kg b.i.d.)): significantly inhibited complement activation | joint histology: inflammatory cell infiltration, bone erosion, proteoglycan loss ([8]; mice, all treated animals, after 6 d of treatment): strongly blocked
